US20190255042A1, “APPLICATION OF HEDGEHOG PATHWAY INHIBITOR IN TREATING FIBROSIS DISEASES” (IMPACT THERAPEUTICS, INC, priority 2016, published 2019)

Test system: liver fibrosis model in C57BL/6 mice induced by CCl4
Assay: Prophylactic therapeutic efficacy in liver fibrosis model in C57BL/6 mice induced by CCl4
Assay type: in vivo
Method: 56 male C57BL/6 mice were randomize divided into false Model group (Group 1, n=6), Model group (Group 2, n=10), positive drug Obercholic acid group (Group 3, n=10, 30 mg/kg/d), compound A low-dose group (Group 4, n=10, 5 mg/kg/d), Compound A medium-dose (Group 5, n=10, 10 mg/kg/d), and Compound A high-dose group (Group 6, n=10, 20 mg/kg/d). Oral molding agent for molding three times a week, for 4 weeks, weighing before each dose. Compound A was administered orally once a day for a total of 28 days from the day of modeling. The model group was given an equal volume of drug vehicle and weighed before each dose. All animals fasted for 6 hours from 24 hours after the end of the last dose. Serum was collected and the concentrations of AST, ALT and TBIL in serum were detected. All animals were euthanized, the livers were collected, weighed, and photos of the gross anatomy of the livers were taken. The liver tissue was fixed in 10% formalin solution for histopathological examination, H&E staining and Sirius red staining.

[1] = high dose group (20 mg/kg/d), four weeks, p<0.05
[2] = obercholic acid 30 mg/kg/d, compound A 5, 10, 20 mg/kg/d

## CC(C)c1cnc(-c2cc(NC(=O)c3ccc(N4C[C@@H](C)N(C)[C@@H](C)C4)cc3C(F)(F)F)ccc2Cl)[nH]1 [Comp A, N-(3-(5-isopropyl-1H-imidazol-2-yl)-4-chlorophenyl)-2-trifluoromethyl-4-((3S,5R)-3,4,5-trimethylpiperazin-1-yl)benzamide]
5 mg/kg, 10 mg/kg, and 20 mg/kg daily for four consecutive weeks
  serum ALT, AST, and TBIL: Slight reductions
5, 10, 20 mg/kg daily for four weeks
  effect on the inflammatory response of liver tissue: little effect
5, 10, 20 mg/kg/d, four weeks
  dose-dependent ALT and AST: decreasing trend
Compound A treatment groups 5, 10, 20 mg/kg/d
  hepatocellular degeneration, necrosis and inflammatory cell infiltration: tendency to reduce
Compound A, four weeks of treatment
  TBIL compared with model group: not significantly decreased
After 4 weeks, compared with false model group, Obercholic acid 30 mg/kg/d, Compound A 5, 10, 20 mg/kg/d
  liver weight: no significant increase
Compound A dose groups, model group 1.2%, no statistical difference
  area of liver tissue fibrosis: 0.8%
Gross liver after 4 weeks, Obercholic acid 30 mg/kg/d, compound A 5, 10, 20 mg/kg/d
  changes of liver surface compared with model group: slightly alleviated
[1]
  ALT compared with model group: significantly lower
  AST compared with model group: significantly lower
high-dose group 20 mg/kg, significant difference from the other groups
  body weight: no significant body weight growth
[2]
  hepatic fibrosis area (Sirius red staining) compared with model group: no significant difference
  total score of liver cell injury compared with model group: not significantly different
Three dose groups (5, 10, 20 mg/kg), model group 6 points
  liver injury score: 4-5 points
